“Also recorded” adds a separate entry of the source.
Legend:
PSEN1 = assay: Western blot of PSEN1 protein in IMR-32 cells; assay type: cell-based, human; conditions: 150 ppb, 24 hours
Protocol: IMR-32 cells were seeded on 6-well plates and then treated with control and various compounds for 6 hours and 24 hours, as described above. After treatments, cells were rinsed with ice-cold PBS and lysed in ice-cold RIPA buffer containing complete proteinase and phosphatase inhibitors (Thermo-Fisher Scientific, Waltham, Mass.) on ice for 30 min Cell lysates were collected using a cell scraper and transfer pipette and then centrifuged at 12000×g for 30 min at 4° C. to remove the DNA pellet and obtain the protein extract. Protein levels in the supernatant of these cell lysates were determined using the Pierce Micro-BCA protein assay kit (Thermo Scientific-Piece Biotechnology, Rockford, Ill.) according to the manufacturer's protocol […]
Positive signals on the membrane blots were detected using Amersham's enhanced chemiluminescence (ECL) Western Blotting Prime Detection reagents (GE healthcare Lifescience, Pittsburgh, Pa.). Images of these luminescence signals on the membrane blots were captured using the LI-COR Odyssey Fc Image system (Lincoln, Nebr.). […] Protein band densities in the Western blots were determined using the Li—COR Image studio software or NIH ImageJ software, and then normalized by ACTB protein level in each sample. […]

BACE1 = assay: Western blot of BACE1 in APP/PS1 mouse brains; assay type: in vivo; conditions: APP/PS1 mice, Compound C diet vs control diet
Protocol: (§1) Male APPΔNLh/ΔNLh×PS1P246 L/246 L knock-in model mice of Alzheimer's disease (abbreviated APP/PS1) were genotyped using standard primers for human APP (Amyloid Precursor Protein) and human PS1 (PSEN1). These APP/PS1 mice starting at the age of 6 months, were fed either a control diet containing normal levels of selenium (0.3 ppm from plant and inorganic selenium salt sources) or an experimental diet containing Compound C (the control diet to which was added 1 ppm Se from Compound C) for 6 months. […]
(§2) Frozen hemispheres of control- and Compound C-treated APP/PS1 mice were weighed and homogenized in PBS buffer, and then subsequently extracted with RIPA buffer (Sigma) containing complete proteinase and phosphatase inhibitors (Fisher Scientific). Protein levels in the samples were determined by micro-BCA protein analysis according to the manufacturer's protocol. […] Positive signals on the membrane blots were detected using Amersham's enhanced chemiluminescence Western Blotting Prime Detection reagents (GE healthcare Lifescience, Pittsburgh, Pa.). Images of these luminescence signals on the membrane blots were captured using the LI-COR Odyssey Fc Image system (Lincoln, Nebr.). Protein band densities in Western blots were determined using NIH Image J software, and then normalized by Actb levels in each samples to obtain the protein levels.

Iba-1 = assay: Western blot of Iba-1 in APP/PS1 mouse brains; assay type: in vivo; conditions: APP/PS1 mice, Compound C diet vs control diet
Protocol: as §1, §2

[1] = test system: phosphorylated Foxo3 (threonine 32); assay: Western blot of phosphorylated Foxo3 in APP/PS1 mouse brains; assay type: in vivo; conditions: APP/PS1 mouse brain, Compound C diet vs control diet
Protocol: Male APPΔNLh/ΔNLh×PS1P246 L/246 L knock-in model mice of Alzheimer's disease (abbreviated APP/PS1) were genotyped using standard primers for human APP (Amyloid Precursor Protein) and human PS1 (PSEN1).
At 12 months of age, the mice were euthanized and the brains quickly removed, the cerebellum isolated and the hemispheres snap-frozen in liquid nitrogen and then stored at −80° C. for further immunohistochemistry (IHC), protein and RNA analysis. All procedures conducted on these animal studies were pre-approved by the University of Kentucky IACUC committee.
as §2, with “Protein band densities in Western blots were determined using NIH Image J software, and then normalized by Actb levels in each samples to obtain the protein levels.” left out

In the case of `C[Se]C[C@H]1O[C@@H](n2cnc3c(N)ncnc32)C(O)C1O` (stereo in doubt) [Compound C, 5′-deoxy-5′-methylselenoadenosine], the PSEN1 protein levels (PSEN1) is reported as “significant reduction”, the “BACE-1 protein levels in the brains” value (BACE1) is reported as “reduced; also recorded: decreased” and the “Iba-1 protein levels in the brains” value (Iba-1) is reported as “reduced; also recorded: decreased”. For the same compound, the “phosphorylated Foxo3 at threonine 32 (pFoxo3) protein” value [1] was “inhibition; also recorded: less abundant; also recorded: significant decrease”.

Reference: US10201558B2, “Compositions of selenoorganic compounds and methods of use thereof” (Alltech, Inc., priority 2014, dated 2019)
